According to patent US9975852B2, “Quinoline sulfonyl derivatives and uses thereof” (Health Sciences North Research Institute, priority 2013, dated 2018):

Key:
[1] = tested on: HeLa S3 cells; assay: Confocal microscopy of spindle poles, centrosomes and cytoskeleton, HeLa S3 cells; assay type: cell-based
Source text: All immunocytochemistry experiments were visualized by confocal microscopy using a Zeiss 510 Meta laser scanning microscope (Carl Zeiss) equipped with a 63× objective lens, unless otherwise specified herein. Three lasers were utilized for excitation with the following band pass filter settings used for detection: Argon 488 nm (band pass 505-530), HeNe 543 nm (long pass 560) and 633 nm (long pass 650). All images were captured and analyzed using LSM 510 software included with the microscope (LSM Image Examiner™, Carl Zeiss).
The synchronization at the G1/S border (more accurately at the beginning of S phase) was achieved by double thymidine block (DT). Briefly, exponentially growing cells are treated with 2.0 mM thymidine for 18 hours, followed by incubation for 11 hours in drug-free complete medium, by which time most cells are at mid-late G1 phase. The cells are then incubated for another 14 hours in 2.0 mM thymidine to arrest them at the G1/S border. To arrest cells at the G2/M phase, cells were maintained for 18 hours in complete medium containing nocodazole (50 ng/ml). Both these synchronization are reversible.
VR-23 caused the formation of multiple spindle poles during late G1 phase in HeLa S3 cells (FIG. 9). HeLa S3 cells were synchronized at G2/M by nocodazole (50 ng/ml, 18 hours), followed by incubation for 6 hours in drug-free medium (at which time they were at G1) (see, e.g., FIG. 8). Cells were then incubated in the absence (control) or presence of 5 μM VR-23 for additional 6 hours (see flow cytometry profile in FIG. 8). […] Note the presence of uneven cell sizes (arrows) which may have been generated as a result of nondisjuctional chromosome segregation during mitosis.
Exponentially growing HeLa S3 cells were treated with 5 μM VR-23 for 6 hours, fixed, stained with an antibody specific for α-tubulin and then examined by confocal fluorescent microscopy for changes to their cytoskeletal structure. Sham denotes that the sample was treated exactly the same as VR-23 sample, except that they were not exposed to VR-23. […] HeLa S3 cells were treated with 2 mM thymidine for 18 hours, followed by incubation for 11 hours in drug-free complete medium, by which time most cells were at mid-late G1 phase. The cells were then incubated for another 14 hours in 2.0 mM thymidine in the absence (control) or presence of 10 μM VR-23. Under these conditions, cells are trapped in the beginning of S phase by a second thymidine block. No centrosome was amplified in the control, while over 87% of VR-23 treated cells analyzed contained multiple centrosomes.
HeLa S3 cells synchronized at the G1/S border by DT treatment were released into cell cycle for 1-6 hours in the absence (control) (FIG. 13A) or presence (FIG. 13B) of VR-23, followed by confocal microscopy. Centrosome amplification was manifested by 3 hour post-DT, although supernumerary started to form by 2 hour post-DT (solid arrows). (Due to experimental variations, centrosome amplification is not visible by 2 hours in all instances). […] More than 70% of cells exposed to VR-23 for 12 hours during S-G2/M contained multiple centrosomes, compared to less than 4% in the control. At least 200 cells were counted for each sample, and each experiment was repeated at least three times.
HeLa S3 cells synchronized at G1/S by DT were released into normal medium for 6 hours (cells reached ˜G2/M), at which time they were exposed to VR-23 for additional 6 hours. Solid arrows denote spindle assembly complexes. […] Triple MTOC/Three-way-pull phenotype comprises usually more than 50-60% of the total population. The “No attachment” phenotype is usually observed when DNA is not completely condensed.

[2] = tested on: 184B5; assay: SRB antiproliferative assay, 184B5 non-cancer breast cells; assay type: cell-based, human; conditions: Homo sapiens, 184B5, SRB
Procedure: (§1) Antiproliferative effects were determined by a sulforhodamine B (SRB) based protocol. For a typical screening experiment, 5,000-10,000 cells were inoculated into 100 μl medium per well of a 96-well microtiter plate as described previously. […] Some of the sample wells were fixed with 25 μl of 50% trichloroacetic acid (TCA) as a control of the cell population for each cell line at the time of drug addition (Tz). An aliquot of the frozen stock was thawed and diluted to the desired final maximum test-concentration with complete medium. Two to ten-fold serial dilutions were made to provide a total of seven drug concentrations (and a control [C]). Following addition of drugs, the culture plate was incubated for additional 48 h. Cells were fixed in situ by slowly adding 25 μl of ice-cold 50% (w/v) TCA (final concentration, 10% TCA), and were then incubated for 60 min at 4° C. The supernatant was discarded, and the plate was washed five times with tap water, followed by air-dry. 50 μl of SRB solution at 0.4% (w/v) in 1% acetic acid was added to each well, and the plate was incubated for >30 min at room temperature. Unbound SRB was removed by five washes with tap water, followed by air-drying. […] The relative growth rate (%) was calculated for each of the compound concentrations according to the following formula: (Ti−Tz)/(C−Tz)×100 In the formula, time zero (Tz), control growth (C), and OD for different concentration of tested compounds (Ti). The GI50 for each compound was obtained from a non-linear Sigmoidal dose-response (variable slope) curve which is fitted by GraphPad Prism™ v.4.03 software. Values were calculated for each of these parameters if the level of activity was reached. However, if the effect was not reached or was exceeded, the value for that parameter was expressed as greater or less than the maximum or minimum concentration tested. Flow Cytometry

[3] = Body weight of CD-1 mice; assay type: in vivo; conditions: 25 mg/kg/week VR-23 i.p.
[4] = tested on: MCF7 cells; assay: Clonogenic assay using MCF7 cells; assay type: cell-based, human; conditions: for Average colony number: series with non-treated control 34
Procedure: The clonogenic assay was carried out as described in Santi and Lee (2011).^11
Antiproliferative activity of VR-23 was evaluated on a variety of different cell lines, alone or in combination with Bortezomib, by way of SRBSRB or clonogenic assays.

[5] = Body weight of ATH490 mice; assay type: in vivo; conditions: VR-23 30 mg/kg
Source text: D0-D25/D29 denotes day 0 to days 25/29 post-drug treatment. […] The body weights of ATH490 mice are normalized on the basis that those of day 0 are 100%.

[6] = tested on: MDA-MB468; assay: SRB antiproliferative assay, MDA-MB468; assay type: cell-based, human; conditions: Homo sapiens
Procedure: as §1

[7] = VR-23 for 6 hours from 6 hours post-DT

Question: What does the source list for `O=[N+]([O-])c1ccc(S(=O)(=O)N2CCN(c3ccnc4cc(Cl)ccc34)CC2)c([N+](=O)[O-])c1` [Compound 1, 7-Chloro-4-(4-(2,4-dinitrophenylsulfonyl)piperazin-1-yl)quinoline]?
Answer: Cells with multiple spindle phenotype ([1]; 5 μM VR-23, 6 hours, late G1): 44.4%; Cytoskeletal formation ([1]; 5 μM VR-23 for 6 hours, α-tubulin staining): caused abnormal cytoskeletal formation; Cells containing multiple centrosomes ([1]; 10 μM VR-23 during second thymidine block, 14 hours): over 87%; Number of cells with multiple centrosomes ([1]; 3 hours post DT): 41 ± 11.8; Number of cells with multiple centrosomes ([1]; 6 hours post DT): 55.2 ± 16.7; Number of cells with multiple centrosomes ([1]; 12 hours post DT): 73.2 ± 1.0; Mitotic cells among 352 cells counted [1, 7]: 34.1%; Mitotic cells with abnormal chromosome segregation [1, 7]: 78.3%; Triple MTOC/Three-way-pull phenotype, share of total population [1, 7]: 50-60%; Cells containing multiple centrosomes ([1]; exposed to VR-23 for 12 hours during S-G2/M): More than 70%; IC50 [2]: 9000 ± 100 nM; GI50 ([2]; 48 h, read-out: GI50 184B5): 8990 ± 120 nM; Ill effects by changes in body weights [3]: did not show any ill effects; Survival (% of the control) ([4]; 1.5 μM of VR-23 alone): 50.3%; Survival (% of the control) ([4]; 3.1 μM of VR-23 alone): 46.8%; IC50 ([4]; Homo sapiens, MCF7, read-out: IC50 MCF7): 1200 ± 500 nM; Average colony number ([4]; VR-23 at 0.37 μM): 25; Average colony number ([4]; VR-23 at 0.75 μM): 27; Toxic effect by body weight [5]: did not show any notable toxic effect; IC50 ([6]; MDA-MB-468): 700 ± 100 nM; GI50 ([6]; MDA-MB-468, 48 h): 700 ± 100 nM
